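96-well plates; 48 h exposure; 5 concentrations. Endpoints by linear interpolation between flanking doses. Not reached: highest tested concentration assigned. Here, GI50 denotes the concentration required for 50% inhibition of growth. TGI denotes the concentration required for complete inhibition of growth.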

Test systems include UO-31 renal; TK-10 renal; OVCAR-5 ovarian; HL-60(TB) leukemia; SK-MEL-5 melanoma; MOLT-4 leukemia; 786-0 renal; HCT-116 colon; OVCAR-8 ovarian; PC-3 prostate; DU-145 prostate.
What all share (experiment): NCI-60 cell line screen, 48 h

As to `N#Cc1c(-c2ccco2)cc(-c2ccc(NCc3nc4ccccc4[nH]3)cc2)nc1N`, the TGI is 58.7 µM with UO-31 renal; 86.2 µM with TK-10 renal; more than 100 µM in the assay on OVCAR-5 ovarian; 47.3 µM in the assay with HL-60(TB) leukemia; 29.9 µM in the assay with SK-MEL-5 melanoma; 39.7 µM with MOLT-4 leukemia. Besides, the TGI was 87.9 µM with 786-0 renal, 45.9 µM with HCT-116 colon and 46.3 µM in the assay with OVCAR-8 ovarian.
In the case of `CCCCC(=O)Nc1ccc2cc(C(=O)OC)c(ON3C(=O)c4ccccc4C3=O)nc2n1`, the TGI was 44.4 µM with UO-31 renal; 46.2 µM with TK-10 renal; more than 100 µM in the assay with PC-3 prostate; 98.3 µM in the assay on OVCAR-5 ovarian; more than 100 µM in the assay with SK-MEL-5 melanoma; more than 100 µM with MOLT-4 leukemia. In addition, the TGI came out at 36.1 µM with 786-0 renal, 45.9 µM in the assay with HCT-116 colon and 58.4 µM in the assay with OVCAR-8 ovarian.
For `COc1ccc(C2SCC(=O)N2c2ccc(-n3c(-c4ccccc4)nc4ccccc4c3=O)cc2)cc1OC` (centres undefined), the TGI in the assay with UO-31 renal, in the assay on TK-10 renal, in the assay on PC-3 prostate, with OVCAR-5 ovarian, with HL-60(TB) leukemia and in the assay on SK-MEL-5 melanoma was more than 100 µM in each case. Moreover, the TGI in the assay on MOLT-4 leukemia, in the assay on 786-0 renal, in the assay on HCT-116 colon and in the assay with OVCAR-8 ovarian was more than 100 µM in each case.
With `COC(=O)C(CCCC1(c2ccccc2)OCCO1)C(C)=O` (centres undefined), the TGI in the assay on UO-31 renal, in the assay on TK-10 renal, in the assay with OVCAR-5 ovarian, in the assay with HL-60(TB) leukemia, with SK-MEL-5 melanoma and in the assay on MOLT-4 leukemia was more than 100 µM in each case. The TGI in the assay on 786-0 renal, in the assay on HCT-116 colon and in the assay with OVCAR-8 ovarian was more than 100 µM in each case.
Turning to `COc1cccc(NC(=S)Nn2c(C)nc3ccccc3c2=O)c1`, the TGI with UO-31 renal, in the assay with TK-10 renal, in the assay with OVCAR-5 ovarian, in the assay with HL-60(TB) leukemia, with SK-MEL-5 melanoma and in the assay on MOLT-4 leukemia was more than 100 µM in each case. The TGI with 786-0 renal, in the assay on HCT-116 colon and in the assay on OVCAR-8 ovarian was more than 100 µM each time.
Turning to `CCCCc1c2c(nc3c1CCCC3O)/C(=C/c1ccccc1)CCC2` (centres undefined), the TGI in the assay with UO-31 renal is more than 100 µM; in the assay on TK-10 renal, 74.7 µM; with OVCAR-5 ovarian, more than 100 µM; in the assay with HL-60(TB) leukemia it was 43 µM; in the assay with SK-MEL-5 melanoma, 39.6 µM; in the assay with MOLT-4 leukemia, 38.7 µM. Also, the TGI with 786-0 renal is 57 µM; in the assay with HCT-116 colon, more than 100 µM; with OVCAR-8 ovarian it was more than 100 µM.
Regarding `CCCc1c(OC)c(=O)c2c(OC)cc(OC)c3c4c(OC)cc(OC)c5c(=O)c(OC)c(CCC)c(c1c23)c54`, the TGI stood at 28.9 µM in the assay on UO-31 renal; 36.8 µM with TK-10 renal; 24.6 µM in the assay on DU-145 prostate; 29 µM in the assay with OVCAR-5 ovarian; 10.4 µM in the assay with HL-60(TB) leukemia; 22.6 µM in the assay with SK-MEL-5 melanoma. The TGI amounted to 35 µM with MOLT-4 leukemia, 26.7 µM with 786-0 renal, 28 µM in the assay with HCT-116 colon and 40.8 µM in the assay with OVCAR-8 ovarian.
Regarding `COCC1CCCN1c1ccc(/C=C(/C#N)C(N)=S)cc1` (centres undefined), the GI50 in the assay on UO-31 renal is more than 100 µM; with TK-10 renal it was more than 100 µM; with DU-145 prostate it was more than 100 µM; in the assay with OVCAR-5 ovarian it was more than 100 µM; with HL-60(TB) leukemia, more than 100 µM; with SK-MEL-5 melanoma, 89.1 µM. Moreover, the GI50 in the assay on MOLT-4 leukemia, in the assay with HCT-116 colon and in the assay with OVCAR-8 ovarian was more than 100 µM in each case. Further, the TGI in the assay on UO-31 renal, in the assay on TK-10 renal, with DU-145 prostate, with OVCAR-5 ovarian, with HL-60(TB) leukemia and in the assay with SK-MEL-5 melanoma was more than 100 µM in each case. For the same molecule, the TGI in the assay with MOLT-4 leukemia, in the assay on HCT-116 colon and in the assay on OVCAR-8 ovarian was more than 100 µM in each case.
In the case of `Nc1nc(SCCNC(=O)CCc2ccc(O)cc2)nc2c1ncn2C1OC(CO)C(O)C1O` (centres undefined), the TGI with UO-31 renal, in the assay on TK-10 renal, in the assay on OVCAR-5 ovarian, in the assay with HL-60(TB) leukemia, in the assay with SK-MEL-5 melanoma and in the assay on MOLT-4 leukemia was more than 203 µM throughout. Moreover, the TGI in the assay with 786-0 renal, with HCT-116 colon and in the assay with OVCAR-8 ovarian was more than 203 µM in each case.
Regarding `Clc1ccc(SCCSCCCCCCCCCCSCCSc2ccc(Cl)cc2)cc1`, the TGI in the assay on UO-31 renal, with TK-10 renal, with OVCAR-5 ovarian, in the assay on HL-60(TB) leukemia, in the assay on SK-MEL-5 melanoma and in the assay on MOLT-4 leukemia was more than 100 µM each time. The TGI in the assay on 786-0 renal and in the assay with OVCAR-8 ovarian was more than 100 µM each time.
As to `COc1cc2c(c(C)c1O)[C@H]1COc3ccccc3[C@H]1O2`, the TGI is 35.5 µM in the assay on UO-31 renal; 80.8 µM in the assay with TK-10 renal; more than 100 µM in the assay on OVCAR-5 ovarian; 12.7 µM in the assay on HL-60(TB) leukemia; 22.9 µM in the assay on SK-MEL-5 melanoma; 42.7 µM in the assay with MOLT-4 leukemia. The TGI in the assay on 786-0 renal is 42.6 µM; in the assay on HCT-116 colon, 18.7 µM; in the assay with OVCAR-8 ovarian, 67.3 µM.
Take `Cn1c(=O)cc(NCc2ccc(Cl)cc2)[nH]c1=O`: the TGI with UO-31 renal, in the assay with TK-10 renal, with PC-3 prostate, in the assay with OVCAR-5 ovarian, in the assay on SK-MEL-5 melanoma and in the assay on 786-0 renal was more than 100 µM each time. In addition, the TGI with HCT-116 colon and in the assay with OVCAR-8 ovarian was more than 100 µM in each case.
For the molecule `COc1cc(C2c3cc4c(cc3OC(Nc3ccc(C(=O)O)cc3)C2C)OCO4)cc(OC)c1OC` (centres undefined), the TGI in the assay on UO-31 renal is 28 µM; in the assay on TK-10 renal, more than 100 µM; in the assay on PC-3 prostate it was more than 100 µM; in the assay with OVCAR-5 ovarian, more than 100 µM; in the assay on HL-60(TB) leukemia, 0.541 µM; in the assay on SK-MEL-5 melanoma, 0.522 µM. The TGI in the assay with MOLT-4 leukemia was 25.8 µM; with 786-0 renal, more than 100 µM; in the assay with HCT-116 colon, 12.2 µM; in the assay with OVCAR-8 ovarian, more than 100 µM.
As for `CCc1n[nH]c(=O)n1/N=C/c1ccccc1Cl`, the TGI in the assay on UO-31 renal, in the assay on TK-10 renal, in the assay with DU-145 prostate, in the assay on OVCAR-5 ovarian, in the assay on HL-60(TB) leukemia and in the assay on SK-MEL-5 melanoma was more than 100 µM throughout. The TGI in the assay with MOLT-4 leukemia, with 786-0 renal, with HCT-116 colon and in the assay on OVCAR-8 ovarian was more than 100 µM each time.
Consider `COC(=O)C1=C(C(=O)OC)C2(OC(C)=O)c3ccccc3-c3ccccc3C12` (centres undefined), for which the TGI with UO-31 renal is 8.97 µM; with TK-10 renal, 8.08 µM; with OVCAR-5 ovarian, 27.2 µM; in the assay with SK-MEL-5 melanoma it was 27.3 µM; in the assay on 786-0 renal it was 8.26 µM; with HCT-116 colon, 7.98 µM. In the assay with OVCAR-8 ovarian, this molecule yielded a TGI of 12.2 µM.
Regarding `CC1OC(OC2C(O[C@H]3CC[C@@]4(C)[C@@H](CC[C@@H]5[C@@H]4CC[C@]4(C)[C@@H]6[C@H](C[C@@H]54)O[C@]4(CC[C@@H](C)CO4)[C@H]6C)C3)OC(CO)C(OC3OC(CO)C(O)C(OC4OCC(O)C(O)C4O)C3OC3OCC(O)C(O)C3O)C2O)C(O)C(O)C1O` (some centres undefined), the TGI in the assay with UO-31 renal is 2.44 µM; in the assay on PC-3 prostate, 1.8 µM; in the assay with DU-145 prostate it was 2.73 µM; in the assay on OVCAR-5 ovarian, 2.42 µM; in the assay on HL-60(TB) leukemia, 1.01 µM; with 786-0 renal, 3.02 µM. Moreover, the TGI in the assay with HCT-116 colon is 1.02 µM; with OVCAR-8 ovarian, 3.25 µM.
Regarding `O=c1cc(N2CCOCC2)[nH]c(=O)n1-c1cccc(C(F)(F)F)c1`, the TGI in the assay on UO-31 renal, in the assay with TK-10 renal, in the assay with DU-145 prostate, with OVCAR-5 ovarian, in the assay with HL-60(TB) leukemia and with SK-MEL-5 melanoma was more than 100 µM throughout. Besides, the TGI in the assay with MOLT-4 leukemia, with 786-0 renal, in the assay on HCT-116 colon and in the assay on OVCAR-8 ovarian was more than 100 µM each time.
As for `NCCCNc1nc2ccccc2c2c(=O)c3cc(C(F)(F)F)ccc3sc12`, the GI50 with UO-31 renal is 1.4 µM; with DU-145 prostate it was 1.82 µM; with OVCAR-5 ovarian it was 1.73 µM; in the assay on SK-MEL-5 melanoma, 1.7 µM. Moreover, the TGI is 2.74 µM in the assay with UO-31 renal, 3.26 µM in the assay with DU-145 prostate, 3.15 µM in the assay on OVCAR-5 ovarian and 3.07 µM in the assay on SK-MEL-5 melanoma.
Regarding `CCCn1c(SCC)c2ccccc2c1-c1nc(F)nc(F)n1`, the TGI in the assay on UO-31 renal, in the assay on TK-10 renal, with OVCAR-5 ovarian, in the assay on HL-60(TB) leukemia, with MOLT-4 leukemia and in the assay on 786-0 renal was more than 100 µM each time. The same molecule gave a TGI in the assay on HCT-116 colon of more than 100 µM.
For `COc1ccc(C2C3C(=O)C=CC(=O)C3[C@@H]2C)cc1OC` (some centres undefined), the TGI in the assay on UO-31 renal was more than 100 µM; with TK-10 renal it was more than 100 µM; with OVCAR-5 ovarian it was more than 100 µM; with SK-MEL-5 melanoma it was more than 100 µM; in the assay with MOLT-4 leukemia, 91.9 µM; in the assay on 786-0 renal, more than 100 µM. Further, the TGI in the assay on HCT-116 colon and in the assay on OVCAR-8 ovarian was more than 100 µM throughout.
`CCNC1(c2cccc(C)c2)OC(C)(C)c2cccc3cccc1c23` (centres undefined): the TGI in the assay on UO-31 renal turned out to be 29.8 µM; in the assay on TK-10 renal, 38.3 µM; in the assay with DU-145 prostate, 36.1 µM; with OVCAR-5 ovarian it was 38.1 µM; with HL-60(TB) leukemia, 19.7 µM; with SK-MEL-5 melanoma, 34.8 µM. Also, the TGI is 37.6 µM with 786-0 renal, 97.4 µM in the assay on HCT-116 colon and 36.5 µM in the assay on OVCAR-8 ovarian.

These data come from PubChem BioAssay (NCI).
